# Data as given in publication PMC11434613, “The Remarkable and Selective In Vitro Cytotoxicity of Synthesized Bola-Amphiphilic Nanovesicles on Etoposide-Sensitive and -Resistant Neuroblastoma Cells” (Nanomaterials, 2024).
# How the values were obtained:
# HTLA-ER cells [1] = experiment: Cell viability assay (CellTiter 96 AQueous One Solution) on etoposide-resistant HTLA-ER NB cells; assay type: cell-based, human; settings: average IC50 on three human normal oral cell lines (ref 69) / IC50 on HTLA-ER after 24 h (ref 58)
# Source text: HTLA-230 human stage-IV NB cells were kindly provided by Dr. L. Raffaghello (G. Gaslini Institute, Genoa, Italy). The HTLA-ER cells were selected by treating HTLA-230 parental cells for six months with increasing concentrations of etoposide, as previously reported. Both cell populations were maintained in RPMI 1640 medium (Euroclone Spa, Pavia, Italy) supplemented with 10% fetal bovine serum (FBS, Euroclone Spa, Pavia, Italy), 1% L-glutamine (Euroclone Spa, Pavia, Italy), and 1% Penicillin/Streptomicin (Euroclone Spa, Pavia, Italy) and grown in standard conditions (37 °C humidified incubator with 5% CO2).
# To determine the cytotoxic effects of BPPB, in vitro time- and dose-dependent experiments were carried out. Cells were first treated for 24, 48, and 72 h, with increasing concentrations (0.5–50 µM) of the compound. In a subsequent series of the experiments, cells were treated for 24, 48, and 72 h with increasing concentration of BPPB in the range of 0.1–2 µM. […] Cell cultures were carefully monitored before and during the experiments to ensure optimal cell density.
# Cell viability was determined by using the CellTiter 96® AQueous One Solution Cell Proliferation Assay (Promega, Madison, WI, USA), as previously described. Briefly, cells (10,000 cells/well) were seeded into 96-well plates (Corning Incorporated, Corning, NY, USA) and then treated. Next, cells were incubated with 20 µL of CellTiter, and the absorbance at 490 nm was recorded using a microplate reader (EL-808, BIO-TEK Instruments Inc., Winooski, VT, USA). IC50 was evaluated by GraphPad Prism 5.4.2 Software (GraphPad Software, Boston, MA, USA).
# Results are expressed as the means ± S.D. of at least four independent experiments in which six different wells were analyzed every time for each experimental condition. The statistical significance of differences was determined by two-way analysis of variances (ANOVA) followed by Tukey’s multicomparison test using GraphPad Prism 8.0 (GraphPad Software v8.0, San Diego, CA, USA); p < 0.05 was considered statistically significant. Asterisks or other indicators (see Figures captions) indicate the following p-value ranges: p > 0.05 no symbols, * = p < 0.05, ** = p < 0.01, *** = p < 0.001, **** = p < 0.0001.
# [2] = test system: HTLA-230 human stage-IV NB cells; settings: 100 µM for 24 h; cited from earlier work
# HTLA-ER cells [3] = settings: cited from earlier work
structure (smiles),measurement,setting,value
"COc1cc([C@@H]2c3cc4c(cc3[C@@H](O[C@@H]3O[C@@H]5CO[C@@H](C)O[C@H]5[C@H](O)[C@H]3O)[C@H]3COC(=O)[C@H]23)OCO4)cc(OC)c1O [ETO, etoposide]",Etoposide SI for HTLA-ER NB cells,HTLA-ER cells [1],0.32
same,Cell viability HTLA-230,[2],~70%
same,Cell viability HTLA-ER,HTLA-ER cells [3]; 100 µM for 24 h,over 80%
same,IC50,"HTLA-ER cells [3]; 24 h of exposure, read-out: Extrapolated IC50 on HTLA-ER",592 µM
